For 15 molecules, Selectivity, Kd and IC50 results are on record in patent US20250152585A1, “PHARMACEUTICAL COMPOUND” (Duke Street Bio Limited, priority 2022, published 2025).

T2 sequence (Q9UGN5 whole entry, the tested form may be a part): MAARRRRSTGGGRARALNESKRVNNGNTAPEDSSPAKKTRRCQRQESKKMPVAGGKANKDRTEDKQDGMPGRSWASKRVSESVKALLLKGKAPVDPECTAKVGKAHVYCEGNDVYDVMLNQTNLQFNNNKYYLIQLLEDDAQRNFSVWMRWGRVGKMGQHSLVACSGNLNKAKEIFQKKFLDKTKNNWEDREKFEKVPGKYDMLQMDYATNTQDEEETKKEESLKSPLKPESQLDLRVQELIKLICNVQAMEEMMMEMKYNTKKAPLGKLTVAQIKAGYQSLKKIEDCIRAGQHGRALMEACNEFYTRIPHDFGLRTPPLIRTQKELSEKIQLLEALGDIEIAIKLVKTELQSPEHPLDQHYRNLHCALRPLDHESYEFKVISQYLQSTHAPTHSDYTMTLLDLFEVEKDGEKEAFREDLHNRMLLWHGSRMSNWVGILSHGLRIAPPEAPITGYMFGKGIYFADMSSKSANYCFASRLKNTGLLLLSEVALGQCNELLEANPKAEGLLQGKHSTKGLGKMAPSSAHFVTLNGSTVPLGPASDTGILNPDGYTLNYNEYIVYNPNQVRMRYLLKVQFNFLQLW

In the first test the target is T1, full length N-terminally FLAG-tagged PARP1 (Homo sapiens, UniProt P09874). The test is described as follows: PARP1 probe displacement HTRF assay. Particulars: PARP1 over PARP2, ratio Kd (PARP2)/Kd (PARP1), probe displacement HTRF. On the technique in general: TR-FRET usually uses a lanthanide donor and a delayed reading to cut background.
T1 sequence (P09874 whole entry): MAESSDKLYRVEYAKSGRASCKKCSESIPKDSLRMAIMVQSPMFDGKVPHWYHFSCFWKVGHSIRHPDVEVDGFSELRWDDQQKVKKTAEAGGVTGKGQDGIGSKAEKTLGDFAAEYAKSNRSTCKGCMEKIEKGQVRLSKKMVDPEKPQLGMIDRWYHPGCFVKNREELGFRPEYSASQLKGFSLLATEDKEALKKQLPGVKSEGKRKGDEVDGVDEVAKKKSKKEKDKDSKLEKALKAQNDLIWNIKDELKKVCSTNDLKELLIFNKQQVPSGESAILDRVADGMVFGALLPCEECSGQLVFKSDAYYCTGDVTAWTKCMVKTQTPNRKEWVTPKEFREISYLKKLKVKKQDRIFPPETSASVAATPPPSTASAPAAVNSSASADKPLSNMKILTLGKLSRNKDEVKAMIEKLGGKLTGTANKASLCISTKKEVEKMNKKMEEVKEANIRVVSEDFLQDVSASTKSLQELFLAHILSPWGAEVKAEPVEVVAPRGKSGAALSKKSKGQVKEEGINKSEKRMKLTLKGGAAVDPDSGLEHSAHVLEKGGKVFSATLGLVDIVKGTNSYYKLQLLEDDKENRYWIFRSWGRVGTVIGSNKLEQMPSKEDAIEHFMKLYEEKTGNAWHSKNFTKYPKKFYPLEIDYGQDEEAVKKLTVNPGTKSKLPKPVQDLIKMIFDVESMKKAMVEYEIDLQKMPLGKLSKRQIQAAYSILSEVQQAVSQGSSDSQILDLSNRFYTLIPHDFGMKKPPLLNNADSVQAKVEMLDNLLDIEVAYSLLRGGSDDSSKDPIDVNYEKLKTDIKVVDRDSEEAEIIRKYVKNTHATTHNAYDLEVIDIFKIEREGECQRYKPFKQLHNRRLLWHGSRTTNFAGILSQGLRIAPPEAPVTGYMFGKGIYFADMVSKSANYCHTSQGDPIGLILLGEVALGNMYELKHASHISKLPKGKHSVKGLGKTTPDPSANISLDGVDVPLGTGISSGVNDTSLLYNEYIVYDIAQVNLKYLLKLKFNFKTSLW
As for `O=C(NC1COC1)c1ccc(N2CCC(N3CCC(c4nc5ccccc5c(=O)[nH]4)C3)CC2)cn1` (racemic) [Compound 229rac], the Selectivity result is on record as “+++ (+++ indicate a value of at least 100)”.

As to `CNC(=O)c1ccc(N2CCC(N3CCC(c4ccc(CCF)c(=O)[nH]4)C3)CC2)cn1` (racemic) [Compound 231rac], the Selectivity result is listed as “+++ (+++ indicate a value of at least 100)”.

As for `CNC(=O)c1ccc(N2CCC(N3CCC(c4cc5c(c(=O)[nH]4)CCCN5)C3)CC2)cn1` (racemic) [Compound 233rac], the Selectivity result is listed as “+++ (+++ indicate a value of at least 100)”.

Turning to `CNC(=O)c1ncc(N2CCC(N3CCC(c4cc5cccc(F)c5c(=O)[nH]4)C3)CC2)cn1` (racemic) [Compound 234rac], the Selectivity entry is reported as “+++ (+++ indicate a value of at least 100)”.

`CNC(=O)c1cc(F)c(N2CCC(N3CCC(c4cc5ccc(F)cc5c(=O)[nH]4)C3)CC2)cn1` (racemic) [Compound 235rac]: the Selectivity entry is reported as “+ (+ indicates a value of 10 to less than 50)”.

`CNC(=O)c1ccc(N2CCC(N3CCC(c4[nH]c(=O)c5ccccc5c4C)C3)CC2)cn1` (racemic) [Compound 237rac]: the Selectivity entry is recorded as “++ (++ indicates a value of 50 to less than 100)”.

Consider `CNC(=O)c1ncc(N2CCC(N3CCC(c4cc5cccc(F)c5c(=O)[nH]4)C3)CC2)c(C)n1` (racemic) [Compound 241rac], for which the Selectivity result is recorded as “+++ (+++ indicate a value of at least 100)”.

On to `CCc1ccc(C2CCN(C3CCN(c4cnc(C(=O)NC)nc4Cl)CC3)C2)[nH]c1=O` (racemic) [Compound 242rac], for which the Selectivity result is on record as “++ (++ indicates a value of 50 to less than 100)”.

As for `CNC(=O)c1ccc(N2CCC(N3CCC(c4ccc(CC(F)(F)F)c(=O)[nH]4)C3)CC2)cn1` (racemic) [Compound 243rac], the Selectivity entry is “++ (++ indicates a value of 50 to less than 100)”.

Turning to `CNC(=O)c1ccc(N2CCC(N3CCC(c4cc5c(c(C(F)(F)F)nn5C)c(=O)[nH]4)C3)CC2)cn1` (racemic) [Compound 244rac], the Selectivity entry is recorded as “− (− indicates a value of less than 10)”.

With `CNC(=O)c1cc(Cl)c(N2CCC(N3CCC(c4cc5cccc(F)c5c(=O)[nH]4)C3)CC2)cn1` (racemic) [Compound 248rac], the Selectivity entry is “+++ (+++ indicate a value of at least 100)”.

In the case of `CNC(=O)c1cnc(N2CCC(N3CCC(c4cc5ccccc5c(=O)[nH]4)C3)CC2)s1` (racemic) [Compound 253rac], the Selectivity result was “+ (+ indicates a value of 10 to less than 50)”.

Take `O=c1[nH]c(C2CCN(C3CCN(c4nccs4)CC3)C2)cc2ccccc12` (racemic) [Compound 254rac]: the Selectivity entry is “+ (+ indicates a value of 10 to less than 50)”.

`CCc1ccc(C2CCN(C3CCN(c4cnc(C(=O)NC)cc4F)CC3)C2)[nH]c1=O` (racemic) [Compound 257rac]: the Selectivity result was “+++ (+++ indicate a value of at least 100)”.

`O=c1[nH]c(C2CCN(C3CCN(c4ccc(-c5nnn[nH]5)nc4)CC3)C2)nc2ccccc12` (racemic) [Compound 263rac]: the Selectivity result is listed as “− (− indicates a value of less than 10)”.

Staying with this test, now noted: read-out: PARP1 HTRF; binned Kd, probe displacement HTRF.
As for `O=C(NC1COC1)c1ccc(N2CCC(N3CCC(c4nc5ccccc5c(=O)[nH]4)C3)CC2)cn1` (racemic) [Compound 229rac], the Kd was < 10 nM.

As to `CNC(=O)c1ccc(N2CCC(N3CCC(c4ccc(CCF)c(=O)[nH]4)C3)CC2)cn1` (racemic) [Compound 231rac], the Kd was < 10 nM.

Regarding `CNC(=O)c1ccc(N2CCC(N3CCC(c4cc5c(c(=O)[nH]4)CCCN5)C3)CC2)cn1` (racemic) [Compound 233rac], the Kd is < 10 nM.

For `CNC(=O)c1ncc(N2CCC(N3CCC(c4cc5cccc(F)c5c(=O)[nH]4)C3)CC2)cn1` (racemic) [Compound 234rac], the Kd was < 10 nM.

As for `CNC(=O)c1cc(F)c(N2CCC(N3CCC(c4cc5ccc(F)cc5c(=O)[nH]4)C3)CC2)cn1` (racemic) [Compound 235rac], the Kd is < 10 nM.

Turning to `CNC(=O)c1ccc(N2CCC(N3CCC(c4[nH]c(=O)c5ccccc5c4C)C3)CC2)cn1` (racemic) [Compound 237rac], the Kd was < 10 nM.

Regarding `CNC(=O)c1ncc(N2CCC(N3CCC(c4cc5cccc(F)c5c(=O)[nH]4)C3)CC2)c(C)n1` (racemic) [Compound 241rac], the Kd is < 10 nM.

For the molecule `CCc1ccc(C2CCN(C3CCN(c4cnc(C(=O)NC)nc4Cl)CC3)C2)[nH]c1=O` (racemic) [Compound 242rac], the Kd was < 10 nM.

As to `CNC(=O)c1ccc(N2CCC(N3CCC(c4ccc(CC(F)(F)F)c(=O)[nH]4)C3)CC2)cn1` (racemic) [Compound 243rac], the Kd lay within 10 to 100 nM.

As for `CNC(=O)c1ccc(N2CCC(N3CCC(c4cc5c(c(C(F)(F)F)nn5C)c(=O)[nH]4)C3)CC2)cn1` (racemic) [Compound 244rac], the Kd is < 10 nM.

Consider `CNC(=O)c1cc(Cl)c(N2CCC(N3CCC(c4cc5cccc(F)c5c(=O)[nH]4)C3)CC2)cn1` (racemic) [Compound 248rac], for which the Kd is < 10 nM.

As for `CNC(=O)c1cnc(N2CCC(N3CCC(c4cc5ccccc5c(=O)[nH]4)C3)CC2)s1` (racemic) [Compound 253rac], the Kd was in the range of 10 to 100 nM.

For the molecule `O=c1[nH]c(C2CCN(C3CCN(c4nccs4)CC3)C2)cc2ccccc12` (racemic) [Compound 254rac], the Kd fell in the range of 100 to 1000 nM.

`CCc1ccc(C2CCN(C3CCN(c4cnc(C(=O)NC)cc4F)CC3)C2)[nH]c1=O` (racemic) [Compound 257rac]: the Kd is < 10 nM.

In the case of `O=c1[nH]c(C2CCN(C3CCN(c4ccc(-c5nnn[nH]5)nc4)CC3)C2)nc2ccccc12` (racemic) [Compound 263rac], the Kd fell in the range of 100 to 1000 nM.

A further test concerns the target T2, N-terminally FLAG-tagged PARP2 (amino acids 1-583) (Homo sapiens, UniProt Q9UGN5).
T2 construct: N-terminally FLAG-tagged PARP2 (amino acids 1-583)
Nature of the test: PARP2 probe displacement HTRF assay. Format: binding. Particulars: binned Kd, probe displacement HTRF. On the procedure: Data analysis was performed identical as for PARP1.
In the case of `O=C(NC1COC1)c1ccc(N2CCC(N3CCC(c4nc5ccccc5c(=O)[nH]4)C3)CC2)cn1` (racemic) [Compound 229rac], the Kd lay in the range of 100 to 1000 nM.

As to `CNC(=O)c1ccc(N2CCC(N3CCC(c4ccc(CCF)c(=O)[nH]4)C3)CC2)cn1` (racemic) [Compound 231rac], the Kd was in the range of 1000 to 10000 nM.

Molecule `CNC(=O)c1ccc(N2CCC(N3CCC(c4cc5c(c(=O)[nH]4)CCCN5)C3)CC2)cn1` (racemic) [Compound 233rac] gave a Kd of 100 to 1000 nM.

Take `CNC(=O)c1ncc(N2CCC(N3CCC(c4cc5cccc(F)c5c(=O)[nH]4)C3)CC2)cn1` (racemic) [Compound 234rac]: the Kd is 100 to 1000 nM.

Molecule `CNC(=O)c1cc(F)c(N2CCC(N3CCC(c4cc5ccc(F)cc5c(=O)[nH]4)C3)CC2)cn1` (racemic) [Compound 235rac] showed a Kd of 10 to 100 nM.

Turning to `CNC(=O)c1ccc(N2CCC(N3CCC(c4[nH]c(=O)c5ccccc5c4C)C3)CC2)cn1` (racemic) [Compound 237rac], the Kd was in the range of 10 to 100 nM.

Turning to `CNC(=O)c1ncc(N2CCC(N3CCC(c4cc5cccc(F)c5c(=O)[nH]4)C3)CC2)c(C)n1` (racemic) [Compound 241rac], the Kd lay in the range of 100 to 1000 nM.

For `CCc1ccc(C2CCN(C3CCN(c4cnc(C(=O)NC)nc4Cl)CC3)C2)[nH]c1=O` (racemic) [Compound 242rac], the Kd is 100 to 1000 nM.

On to `CNC(=O)c1ccc(N2CCC(N3CCC(c4ccc(CC(F)(F)F)c(=O)[nH]4)C3)CC2)cn1` (racemic) [Compound 243rac], for which the Kd was > 10000 nM.

Consider `CNC(=O)c1ccc(N2CCC(N3CCC(c4cc5c(c(C(F)(F)F)nn5C)c(=O)[nH]4)C3)CC2)cn1` (racemic) [Compound 244rac], for which the Kd is < 10 nM.

On to `CNC(=O)c1cc(Cl)c(N2CCC(N3CCC(c4cc5cccc(F)c5c(=O)[nH]4)C3)CC2)cn1` (racemic) [Compound 248rac], for which the Kd lay within 100 to 1000 nM.

For `CNC(=O)c1cnc(N2CCC(N3CCC(c4cc5ccccc5c(=O)[nH]4)C3)CC2)s1` (racemic) [Compound 253rac], the Kd is > 10000 nM.

In turn, `O=c1[nH]c(C2CCN(C3CCN(c4nccs4)CC3)C2)cc2ccccc12` (racemic) [Compound 254rac] returned a Kd of 1000 to 10000 nM.

Regarding `CCc1ccc(C2CCN(C3CCN(c4cnc(C(=O)NC)cc4F)CC3)C2)[nH]c1=O` (racemic) [Compound 257rac], the Kd lay within 1000 to 10000 nM.

Turning to `O=c1[nH]c(C2CCN(C3CCN(c4ccc(-c5nnn[nH]5)nc4)CC3)C2)nc2ccccc12` (racemic) [Compound 263rac], the Kd lay within 100 to 1000 nM.

A further test concerns the target T1, full length N-terminally FLAG-tagged PARP1. The test is described as follows: PARP1 biochemical DELFIA assay (auto-PARylation). Set-up: recombinant full length human N-terminally FLAG-tagged PARP1. Particulars: binned IC50, biochemical auto-PARylation assay.
Usually IC50 stands for the concentration at which inhibition is half-maximal. With `O=C(NC1COC1)c1ccc(N2CCC(N3CCC(c4nc5ccccc5c(=O)[nH]4)C3)CC2)cn1` (racemic) [Compound 229rac], the half-maximal inhibitory concentration (IC50) fell in the range of 10 to 100 nM.

As to `CNC(=O)c1ccc(N2CCC(N3CCC(c4ccc(CCF)c(=O)[nH]4)C3)CC2)cn1` (racemic) [Compound 231rac], the IC50 is < 10 nM.

On to `CNC(=O)c1ccc(N2CCC(N3CCC(c4cc5c(c(=O)[nH]4)CCCN5)C3)CC2)cn1` (racemic) [Compound 233rac], for which the IC50 is < 10 nM.

For `CNC(=O)c1ncc(N2CCC(N3CCC(c4cc5cccc(F)c5c(=O)[nH]4)C3)CC2)cn1` (racemic) [Compound 234rac], the IC50 is < 10 nM.

Consider `CNC(=O)c1cc(F)c(N2CCC(N3CCC(c4cc5ccc(F)cc5c(=O)[nH]4)C3)CC2)cn1` (racemic) [Compound 235rac], for which the IC50 was < 10 nM.

Consider `CNC(=O)c1ccc(N2CCC(N3CCC(c4[nH]c(=O)c5ccccc5c4C)C3)CC2)cn1` (racemic) [Compound 237rac], for which the half-inhibitory concentration (IC50) is < 10 nM.

With `CNC(=O)c1ncc(N2CCC(N3CCC(c4cc5cccc(F)c5c(=O)[nH]4)C3)CC2)c(C)n1` (racemic) [Compound 241rac], the IC50 was < 10 nM.

For `CCc1ccc(C2CCN(C3CCN(c4cnc(C(=O)NC)nc4Cl)CC3)C2)[nH]c1=O` (racemic) [Compound 242rac], the IC50 was < 10 nM.

For the molecule `CNC(=O)c1ccc(N2CCC(N3CCC(c4ccc(CC(F)(F)F)c(=O)[nH]4)C3)CC2)cn1` (racemic) [Compound 243rac], the IC50 fell in the range of 10 to 100 nM.

On to `CNC(=O)c1ccc(N2CCC(N3CCC(c4cc5c(c(C(F)(F)F)nn5C)c(=O)[nH]4)C3)CC2)cn1` (racemic) [Compound 244rac], for which the IC50 is < 10 nM.

Turning to `CNC(=O)c1cc(Cl)c(N2CCC(N3CCC(c4cc5cccc(F)c5c(=O)[nH]4)C3)CC2)cn1` (racemic) [Compound 248rac], the IC50 was < 10 nM.

On to `CNC(=O)c1cnc(N2CCC(N3CCC(c4cc5ccccc5c(=O)[nH]4)C3)CC2)s1` (racemic) [Compound 253rac], for which the IC50 is 10 to 100 nM.

As to `O=c1[nH]c(C2CCN(C3CCN(c4nccs4)CC3)C2)cc2ccccc12` (racemic) [Compound 254rac], the concentration for half-maximal inhibition (IC50) lay within 10 to 100 nM.

Take `CCc1ccc(C2CCN(C3CCN(c4cnc(C(=O)NC)cc4F)CC3)C2)[nH]c1=O` (racemic) [Compound 257rac]: the IC50 is < 10 nM.

As for `O=c1[nH]c(C2CCN(C3CCN(c4ccc(-c5nnn[nH]5)nc4)CC3)C2)nc2ccccc12` (racemic) [Compound 263rac], the IC50 was 10 to 100 nM.
